Tests used:
[1] = DSC analysis of the amount of amorphous calcipotriol; assay type: physicochemical; details: two batches, DSC at 100, 300 and 500° C./min under N2
Method: The amount of amorphous calcipotriol generated in this method was determined on two batches of calcipotriol nanocrystals prepared by the method using DSC analysis at a heating rate of 100° C., 300° C. and 500° C./min. under a N2 atmosphere. The instrument used for the analysis was a Perkin Elmer DSC 8500.

[2] = Particle size by dynamic light scattering; assay type: physicochemical; details: Zetasizer Nano ZS90, after high pressure homogenization
Excerpt: The term “particle size distribution” is intended to mean the span between the smallest and largest calcipotriol monohydrate crystal as determined by dynamic light scattering (also known as photon correlation spectroscopy) using a Zetasizer Nano ZS or ZS90 according to the manufacturer's instructions (available from Malvern Instruments, UK). Dynamic light scattering determines the size of solid particles suspended in a liquid by illuminating the particles with a laser and analysing the intensity fluctuations in the scattered light resulting from the Brownian motions of the particles in the liquid. Intensity fluctuations are correlated to particle size in that larger particles move more slowly than smaller particles, i.e. the intensity fluctuation is slower.

[3] = system: IL-1α; test: Release of IL-1α with glycerol in a calcipotriol ointment; details: 5%, 10% and 15% by weight of glycerol in a calcipotriol ointment
[4] = system: gene encoding cathelicidin; test: Cathelicidin gene activation in reconstructed human epidermis, ointments; assay type: cell-based; details: 5% vs 10% or 15% by weight of glycerol in the composition
Excerpt: In psoriasis, the level of cathelicidin is increased in lesional skin of psoriasis patients. […] This finding has been utilized to develop an assay in which the uptake and biological activity of calcipotriol in human keratinocytes from the tested compositions has been determined by measuring the level of induction of the gene encoding cathelicidin.
Compositions A, C and D prepared as described in Example 2 above were applied topically in triplicate on reconstructed human epidermis consisting of normal human keratinocytes cultured for 12 days on 0.5 cm^2 polycarbonate filters (available from SkinEthic® Laboratories, Nice, France) in an amount of 10 μl. The tissue was treated for two days followed by separation of the epidermis from the polycarbonate filter and snap-frozen in liquid nitrogen. RNA was extracted from the cells and cDNA synthesized by conventional procedures. qPCR was then performed using the following assays from Applied Biosystems: CAMP Hs0018038_ml and GAPDH Hs99999905_ml. The expression levels of cathelicidin were normalized to GAPDH and a relative quantification was made by comparison with Daivonex® ointment.

[5] = M. Hannuksela et al., Contact Dermatitis 1, 1975; cited from earlier work

SMILES: C=C1/C(=C\C=C2/CCC[C@]3(C)[C@@H]([C@H](C)/C=C/[C@@H](O)C4CC4)CC[C@@H]23)C[C@@H](O)C[C@@H]1O [calcipotriol monohydrate nanocrystals, Calcipotriol monohydrate]
- amount of amorphous calcipotriol [1]: only insignificant amounts of amorphous calcipotriol
- mean particle size [2]: 350-400 nm
- particle size distribution [2]: 200-600 nm

SMILES: OCC(O)CO [glycerol]
- release of IL-1α [3]: reduce the release of IL-1α in a dose-dependent manner
- expression of cathelicidin / biological activity of calcipotriol [4]: potentiating the biological activity of calcipotriol

SMILES: CC(O)CO (stereo not drawn) [propylene glycol]
- number of irritant reactions [5]: 12.5%
